Laboratory results: US4183931A, “2-Ketoalkyl-4(3H)-quinazolinones” (Research Corporation, priority 1977, dated 1980)

Legend:
[1] = NINCDS Maximal Electroshock Seizure Test (MES); type: in vivo, mice; conditions: for minimal effective dose: read-out: MES: dosage level that elicited protection
Description: (§1) 1. Neurological Activity Tests. […] Compounds were evaluated for anticonvulsant activity in two seizure models, the maximal electroshock seizure (MES) test and the subcutaneous pentylenetetrazol (Metrazol) seizure threshold (scMet) test.
The Maximal Electroshock Seizure Test was performed according to the method described by Swinyard and coworkers,* wherein a drop of 0.9% saline is instilled in each eye prior to application of corneal electrodes. Seizures are elicited with a 50 Hz alternating current of 50 mA (5 to 7 times that necessary to elicit minimal electroshock seizures) delivered for 0.2 sec via corneal electrodes. This stimulus will produce a maximal seizure in all normal mice. The maximal seizure typically consists of a short period of initial tonic flexion and a prolonged period of hind limb tonic extension, followed by terminal clonus. The seizure lasts about 22 seconds. Abolition of the hind limb tonic extensor component of the seizure is defined as protection and indicates anticonvulsant activity in the test compound.
(§2) The ability of a compound to prevent maximal electroshock seizures is believed to correlate with its ability to prevent the spread of seizure discharge through neural tissue. Activity against maximal electroshock seizures is thought to indicate potential efficacy in the treatment of major motor (grand mal) seizures. […] Selective action in the test is believed to indicate potential efficacy against absence (petit mal) seizures.
(§3) As described earlier, the MES, scMet and Rotorod tests were performed one-half hour and four hours after administration of each compound.
(§4) In the Secondary Evaluation, median effective doses (ED50) are determined in the MES, scMet and Rotorod assays using the procedures defined in Pharmacology, 95, 99-113 (1949).
(§5) Separate groups of animals are used for each time period. The times of peak toxic and anticonvulsant effect are taken from the resulting graph of percent of animals responding vs. time, and the determinations of median effective doses are performed at those times.

[2] = NINCDS rotorod ataxia test (minimal neurotoxicity); type: in vivo, mice
Description: (§6) 1. Neurological Activity Tests. The biological testing program is designed to evaluate the following four aspects of drug action: (1) the existence and specificity of anticonvulsant activity; (2) the toxicity, particularly to the central nervous system; and, if the results of (1) and (2) are favorable, (3) the potency and protective index, a comparison between toxic and effective dose and (4) the time course of activity. Compounds were evaluated for anticonvulsant activity in two seizure models, the maximal electroshock seizure (MES) test and the subcutaneous pentylenetetrazol (Metrazol) seizure threshold (scMet) test.
Central nervous system toxicity was evaluated in the rotorod ataxia test. This test is designed to detect minimal neurotoxicity. The animal is placed on a 1-inch diameter knurled plastic rod rotating at 6 rpm. Normal mice can remain indefinitely on a rod rotating at this speed. Neurological deficit is defined as the failure of the animal to remain on the rod for at least 1 minute. This test has a clear end-point, is quantifiable and correlates well with the clinical assessment of minimal toxicity.
(§7) Specific anticonvulsant evaluations performed by NINCDS using MES, scMet and Rotorod assays are presented in Tables III & IV for fourteen new compounds as well as several known compounds. Table III centers attention on 2-substituted-3-o-tolyl-4-(3H)-quinazolinones while Table IV includes the findings for various other 2,3-disubstituted-4(3H)-quinazolinones. As described earlier, the MES, scMet and Rotorod tests were performed one-half hour and four hours after administration of each compound. The tables identify the dosage level that elicited a positive result, such as protection against MES and scMet induced seizures, or loss of balance on the rotorod.
In the Secondary Evaluation, median effective doses (ED50) are determined in the MES, scMet and Rotorod assays using the procedures defined in Pharmacology, 95, 99-113 (1949). In addition, each compound's anticonvulsant activity and neurotoxicity over time are determined by measuring the effect of an intraperitoneally administered estimated median effective dose on maximal electroshock seizures and rotorod performance at intervals of 1/2, 1, 2, 3, 4, 6 and 8 hours.
as §5

[3] = NINCDS Subcutaneous Pentylenetetrazol (Metrazol) Seizure Threshold Test (scMet); type: in vivo, mice; conditions: for minimal effective dose: sc, read-out: scMet: dosage level that elicited protection
Description: as §1
Subcutaneous Pentylenetetrazol (Metrazol) Seizure Threshold Test (scMet) produces threshold (clonic) seizures. Pentylenetetrazol is administered subcutaneously as a threshold 0.5% solution (in 0.9% sodium chloride) in a loose fold of skin on the back of the neck in a dose of 85 mg/kg. […] Metrazol is given 10 minutes before the beginning of the test to allow for the delay in onset of Metrazol action. The animal is observed for 30 minutes. Failure to observe even a threshold seizure (a single episode of clonic spasms at least 5 seconds in duration) is defined as protection and indicates anticonvulsant activity in the test compound. These two methods of seizure provocation reliably elicit well-characterizied seizure phenomena.
as §2, §3, §4, §5

[4] = NINCDS primary evaluation, overall classification; type: in vivo, mice; set-up: key to NINCDS Classification: III: did not exhibit activity in any of the 3 categories at dose levels of 300 mg/kg; conditions: primary evaluation
Description: as §6, §7

[5] = NPP lethality (estimated LD50); conditions: mouse, in vivo, ip
Description: (§8) The procedures for the determination of a neuropharmacological profile involved white male mice of the Carworth Farm Strain CF-1 weighing 18 to 22 grams. […] Intraperitoneal injections were administered in logarithmic progression and sequentially. The dose levels employed routinely were 10, 30, 100 and 300 mg/kg, using four male mice at each dose level. Since this test was conducted in a sequential manner, the first does administered was at 300 mg/kg. […] Approximately thirty-eight signs and symptoms of pharmacological activity can be identified.
(§9) The animals were observed continously for one hour and, if no signs of pharmacological or toxicological activity were present at the end of the first hour, they were intermittently checked for activity every fifteen minutes thereafter for two consecutive hours. […] The observation period began immediately following the injection and the animals were then continuously observed for three hours and intermittently checked thereafter for forty-eight hours. The animals were observed and signs and symptoms of pharmacological activity were recorded continuously until no further symptoms developed and until the symptoms that appeared were no longer present. […] In such instances, the animals were observed beyond this period until they returned to normal. Routinely, the number of animals alive at the end of the forty-eight hour observation period was recorded and the LD50 estimated.
(§10) Scores for behavioral symptoms, including depression, righting reflex and ataxia, are the actual numbers reported. Protection against MES is reported as a percentage. Since four animals were involved in this test, the findings are 0% for none protected, 25% for one out of four, etc. […] In order to maintain reasonable uniformity in the reporting of results, each entry corresponds to a dosage level of 100 mg/kg. Any variations from that dosage are indicated.

[6] = Neuropharmacological Profile (NPP): general CNS observational screen (depression, righting reflex, ataxia)
Description: Representative compounds according to the present invention were tested for central nervous system activity by Pharmakon Laboratories of Scranton, Pennsylvania. The battery of general observational procedures used is referred to herein as a Neuropharmacological Profile (NPP). Additionally, representative compounds were tested in the Anticonvulsant Screening Project of the National Institutes of Neurological and Communicative Disorders and Stroke (NINCDS) at the University of Utah under the direction of Dr. Ewart A. Swinyard.
as §8, §9
The animals are free to move about for evaluation of spatial orientation, alertness and spontaneous motor activity.
(§11) Since this is a general CNS screening procedure, only peak effects were recorded. Certain measures of behavior and neurological deficit were scored in terms of intensity of effect, while most others were determined on an all or none basis. Thus, in scoring measures which were normally present, e.g., spontaneous activity and skin color, an increase in score from 4 to 8 was used to denote stimulation or enhancement of skin color, whereas a decrease in score from 4 to 0 indicated depression or cyanosis. For scoring measures normally absent, e.g., depression, righting reflex and ataxia, activity was reflected as an increase in score from 0 to 8. The 0 to 8 scale was rounded off so that the actual ratings are only 0, 2, 4, 6 and 8. The compounds were also evaluated for anticonvulsant activity by using the maximal electroshock seizure (MES) test. In the MES study, four mice were dosed intraperitoneally at 100 mg/kg and challenged thirty minutes later with 50 mA, 0.2 second duration of electroshock. A protection ratio (number of mice protected from tonic extension .div. number of mice tested) was then established.
At the termination of the test, the results were recorded and tabulated.
as §10

[7] = NPP maximal electroshock seizure (MES) protection; type: in vivo, white male mice of the Carworth Farm Strain CF-1; conditions: Mus musculus, ip, 0.5 h; at 100 mg/kg i.p., four mice, 30 min after dosing
Description: as §8, §11, §10

[8] = Mus musculus, ip, after 4 hr (value in parentheses)
[9] = after 4 hr (value in parentheses)
[10] = Mus musculus, after 4 hr (value in parentheses)
[11] = Mus musculus, ip, secondary evaluation, at time of peak effect
[12] = at 100 mg/kg, i.p., mice, score 0-8
[13] = at 30 mg/kg (value in parentheses), i.p., mice, score 0-8

Row | SMILES | minimal effective dose ([1]; Mus musculus, ip, after 0.5 hr) [mg/kg] | Rotorod: dosage level that elicited loss of balance ([2]; after 0.5 hr) [mg/kg] | Rotorod: dosage level that elicited loss of balance [2, 9] [mg/kg] | minimal effective dose ([3]; Mus musculus, after 0.5 hr) [mg/kg] | minimal effective dose [3, 10] [mg/kg] | LD50 at 48 h [5] [mg/kg] | CNS Depression [6, 12] | responders at 100 mg/kg [7] [%] | other results
1 | CCc1nc2ccccc2c(=O)n1-c1ccccc1C [CH3, 2-Ethyl-3-o-tolyl-4(3H)-quinazolinone, reference compound] | 100 | 100 | 300 | 100 | 300 |  |  |  | minimal effective dose [1, 8]: 300 mg/kg
2 | Cc1ccccc1-n1c(CC(O)c2ccccc2)nc2ccccc2c1=O (stereo not drawn) [CHOHC6 H5, 2-(2-Hydroxy-2-phenylethyl)-3-o-tolyl-4(3H)-quinazolinone] |  |  | 300 | 300 |  |  |  |  | 
3 | Cc1ccccc1-n1c(CC(=O)c2ccc[n+](C)c2)nc2ccccc2c1=O [CO-3-C5 H4 N^+ CH3 I^-] |  | 100 |  |  | 30 |  |  |  | minimal effective dose [1, 8]: 100 mg/kg; toxicity remark (footnote a to NINCDS classification) [4]: Extremely toxic
4 | Cc1ccccc1-n1c(CC(=O)c2ccncc2)nc2ccccc2c1=O [IIId, 2-[2-Oxo-2-(4-pyridyl)ethyl]-3-o-tolyl-4(3H)-quinazolinone] | 100 |  |  | 30 | 300 | > 562 | 0 | 0 | ED50 [1, 11]: 74 mg/kg; MES protective index compared with methaqualone ([1]; secondary evaluation): approximately five-fold higher; PI MES (Protective Index = TD50/ED50) ([1]; secondary evaluation): 5.94; potency against electroshock-induced (MES) seizures compared with methaqualone ([1]; secondary evaluation): less potent than methaqualone; Depression ([6]; at 300 mg/kg, i.p., mice, score 0-8): 4; TD50 ([2]; mouse, in vivo, ip, secondary evaluation, at time of peak effect): 440 mg/kg; ED50 [3, 11]: 75 mg/kg; PI scMet (Protective Index = TD50/ED50) ([3]; secondary evaluation): 5.86; potency against scMet seizures compared with methaqualone ([3]; secondary evaluation): less potent than methaqualone; scMet protective index compared with methaqualone ([3]; secondary evaluation): approximately five-fold higher
5 | Cc1ccccc1-n1c(CC(=O)c2ccc(NC(=O)C(F)(F)F)cc2)nc2ccccc2c1=O [IIIl, 2-[2-Oxo-2-(p-trifluoroacetamidophenyl)ethyl]-3-o-tolyl-4(3H)-quinazolinone] |  | 300 |  | 300 |  |  |  |  | 
6 | CC(=O)Cc1nc2ccccc2c(=O)n1-c1ccccc1C [IIIn, 2-Acetonyl-3-o-tolyl-4(3H)-quinazolinone] |  |  |  |  | 300 | > 562 | 8 | 0 | behavioral activity compared with methaqualone ([6]; NPP summary): equal to methaqualone in affecting behavioral activity; muscle relaxant properties ([6]; NPP summary): possible muscle relaxant properties not exhibited by methaqualone itself; CNS Depression [6, 13]: 4
7 | O=C(Cc1nc2ccccc2c(=O)n1-c1ccccc1Cl)C(F)(F)F [IVa, 2-(3,3,3-Trifluoroacetonyl)-3-o-chlorophenyl-4(3H)-quinazolinone] |  | 300 | 300 |  |  | 178 | 8 |  | NINCDS Classification [4]: III; CNS Depression [6, 13]: 6
8 | O=C(Cc1nc2ccccc2c(=O)n1-c1ccccc1Cl)c1cccnc1 [IVc, 2-[2-Oxo-2-(3-pyridyl)ethyl]-3-o-chlorophenyl-4(3H)-quinazolinone] |  |  | 300 | 300 | 300 | 562 | 4 | 25 | 
9 | O=C(Cc1nc2ccccc2c(=O)n1-c1ccccc1)c1cccnc1 [IVg, 2-[2-Oxo-2-(3-pyridyl)ethyl]-3-phenyl-4(3H)-quinazolinone] | 100 |  |  | 100 |  | 562 | 2 | 0 | 
